The source of these data is BindingDB's records for doi:10.1016/s0960-894x(00)00163-3 (Glaxosmithkline, 2000).

Where only a bound is given, the exact number is not on record here.

For the assay, the target named is T1, Dimer of Gag-Pol polyprotein [501-599,Q508K,L534I,L564I,C568A,C596A] (Human immunodeficiency virus 1, UniProt P03367, C568A/C596A/L534I/L564I/Q508K).
T1 construct: 501-599
In words: Protease Inhibition Assay. Conditions: pH 6.4; 25 °C. The method, then:
The Ki values were determined using fluorogenic substrate, 2-(aminobenzoyl)-Thr-Ile-Nle-Phe(p-NO2)-Gln-ArgNH2. A standard curve relating changes in fluorescent intensity to changes in concentration of product was used to convert fluorescent changes into molar velocities. The amount of cleavage was determined by HPLC.

Broadly, the Ki is the equilibrium dissociation constant of an inhibitor or competing ligand from its target. In turn, `O=C(N[C@H]1c2ccccc2C[C@H]1O)[C@H](Cc1ccccc1)C[C@H](O)CN1C(=O)[C@H](Cc2ccccc2)C[C@@H]1Cc1ccccc1` [(2R,4S)-2-benzyl-5-[(3R,5R)-3,5-dibenzyl-2-oxopyrrolidin-1-yl]-4-hydroxy-N-[(1S,2R)-2-hydroxy-2,3-dihydro-1H-inden-1-yl]pentanamide] registered a Ki of more than 500 pM.
